Counter-ions that a name gives are not always drawn.
Columns and labels:
platelet aggregation [1] = assay: Inhibitory activity on platelet aggregation in rats (ADP-induced, after oral treatment); type: in vivo; settings: Rattus norvegicus, 2 hours after oral treatment, 1.5×10^-5 M adenosine diphosphate, read-out: Percent inhibition of platelet aggregation, Rat
Experimental: (§1) I. Inhibitory activity on platelet aggregation in rats and rabbits
(§2) The citrated blood was obtained 2 hours after the oral treatment with test compounds. The platelet aggregation of platelet rich-plasma was induced by addition of 1.5×10^-5 M adenosine diphosphate (final concentration) and was measured with a Born type six channel aggregometer (G.V.R. Born, J. Physiol. 162, 67 (1962)). […] II. Antihypertensive activity in spontaneously hypertensive rats

platelet aggregation [2] = assay: Inhibitory activity on platelet aggregation in rabbits (ADP-induced, after oral treatment); type: in vivo; settings: Oryctolagus cuniculus, 2 hours after oral treatment, 1.5×10^-5 M adenosine diphosphate, ± SE, read-out: Percent inhibition of platelet aggregation, Rabbit
Experimental: as §1, §2

[3] = tested on: spontaneously hypertensive rats; assay: Antihypertensive activity in spontaneously hypertensive rats (tail blood pressure); type: in vivo, rat; settings: po, decrease of maximum blood pressure at 5 hours after treatment
Experimental: as §2
A group of 5 spontaneously hypertensive rats (300-350 g) was used. Tail blood pressure was determined by a rat tail manometer (NARCO, PE-300) without anesthesia immediately before and 5 hours after the oral treatment with test compounds. The rat was warmed at 40° C. for 10 minutes. The apparatus detects blood flow pulses in the tail by a pulse sensor. The arterial blood flow was interrupted by applying pressure to the tail through a pneumatic cuff. The blood flow reappeared when the cuff pressure was decreased. The value was approximately equal to the maximum blood pressure.

Compound	inhibition at 3 mg/kg (platelet aggregation [1]) [%]	inhibition at 3 mg/kg (platelet aggregation [2]) [%]	Decrease of tail blood pressure in SHR ([3]; 3 mg/kg) [mmHg]	Decrease of tail blood pressure in SHR ([3]; 30 mg/kg) [mmHg]	other results
CC(=O)OCC1CC(=O)NN=C1c1ccc2c(c1)CCC(=O)N2C (stereo not drawn) [Compound B, 6-(5-Acetoxymethyl-3-oxo-2,3,4,5-tetrahydropyridazin-6-yl)-1-methyl-1,2,3,4-tetrahydroquinolin-2-one]	51	85 ± 6	31	62	–
CC1CC(=O)NN=C1c1ccc2c(c1)C(C)(C)CC(=O)N2C (stereo not drawn) [Compound C, 6-(5-Methyl-3-oxo-2,3,4,5-tetrahydropyridazin-6-yl)-1,4,4-trimethyl-1,2,3,4-tetrahydroquinolin-2-one]	59	93 ± 1	48	63	–
CC1CC(=O)NN=C1c1ccc2c(c1)C(C)CC(=O)N2C (stereo not drawn) [Compound D, 6-(5-Methyl-3-oxo-2,3,4,5-tetrahydropyridazin-6-yl)-1,4-dimethyl-1,2,3,4-tetrahydroquinolin-2-one]	–	–	71	–	inhibition at 0.1 mg/kg (platelet aggregation [1]; 0.1 mg/kg): 38%; inhibition at 0.3 mg/kg (platelet aggregation [2]; 0.3 mg/kg): 78 ± 6%; Decrease of tail blood pressure in SHR ([3]; 0.3 mg/kg): 16 mmHg
CN1C(=O)CC(C)(C)c2cc(C3=NNC(=O)CC3CO)ccc21 (stereo not drawn) [Compound E, 6-(5-Hydroxymethyl-3-oxo-2,3,4,5-tetrahydropyridazin-6-yl)-1,4,4-trimethyl-1,2,3,4-tetrahydroquinolin-2-one]	–	–	–	–	inhibition at 10 mg/kg (platelet aggregation [1]; 10 mg/kg): 43%; inhibition at 30 mg/kg (platelet aggregation [2]; 30 mg/kg): 48 ± 16%
CN1C(=O)CCc2cc(C3=NNC(=O)CC3CO)ccc21 (stereo not drawn) [Compound F, 6-(5-Hydroxymethyl-3-oxo-2,3,4,5-tetrahydropyridazin-6-yl)-1-methyl-1,2,3,4-tetrahydroquinolin-2-one]	62	–	–	92	–
CCC1CC(=O)NN=C1c1ccc2c(c1)CCC(=O)N2CC (stereo not drawn) [Compound G, 6-(5-Ethyl-3-oxo-2,3,4,5-tetrahydropyridazin-6-yl)-1-ethyl-1,2,3,4-tetrahydroquinolin-2-one]	34	–	–	–	–
CCN1C(=O)CCc2cc(C3=NNC(=O)CC3CO)ccc21 (stereo not drawn) [Compound H, 6-(5-Hydroxymethyl-3-oxo-2,3,4,5-tetrahydropyridazin-6-yl)-1-ethyl-1,2,3,4-tetrahydroquinolin-2-one]	46	–	–	–	–
CCN1C(=O)CCc2cc(C3=NNC(=O)CC3COC(C)=O)ccc21 (stereo not drawn) [Compound I, 6-(5-Acetoxymethyl-3-oxo-2,3,4,5-tetrahydropyridazin-6-yl)-1-ethyl-1,2,3,4-tetrahydroquinolin-2-one]	46	–	–	47	–
CCN1C(=O)CCc2cc(C3=NNC(=O)CC3C)ccc21 (stereo not drawn) [Compound J, 6-(5-Methyl-3-oxo-2,3,4,5-tetrahydropyridazin-6-yl)-1-ethyl-1,2,3,4-tetrahydroquinolin-2-one]	35	–	–	–	–
CC1CC(=O)N(CCN2CCOCC2)N=C1c1ccc2c(c1)CCC(=O)N2C (stereo not drawn) [Compound K, 6-[5-Methyl-2-(2-morpholinoethyl)-3-oxo-2,3,4,5-tetrahydropyridazin-6-yl]-1-methyl-1,2,3,4-tetrahydroquinolin-2-one hydrochloride hemihydrate]	51	75 ± 8	45	–	–

Source: patent US4258185A, “Pyridazinone compounds” (Yoshitomi Pharmaceutical Industries, Ltd., priority 1980, dated 1981)
